Assay in all cases: inhibition of tumour cell growth, NCI panel, 48 h
Test [1] concerns TK-10 renal.
In test [2] the test system is BT-549 breast.
Test [3] deals with SK-MEL-5 melanoma.
Test [4] concerns HS 578T breast.
The subject of test [5] is HL-60(TB) leukemia.
For test [6], the system named is OVCAR-4 ovarian.
In test [7] the test system is HCT-116 colon.
The test system of test [8] is MALME-3M melanoma.
Test [9] deals with K-562 leukemia.
For test [10], the system named is KM12 colon.

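Cells were grown in 96-well plates and exposed to each compound for 48 hours at five concentrations; endpoints were interpolated linearly between bracketing concentrations, or set to the highest concentration if not reached. At the GI50, growth is halved. At the TGI there is no net growth.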 A value given as a limit tells only on which side of the number the result lay.

Consider `CN(C)c1ccc(/C=c2/c3ccccc3n3c2c2cc(F)ccc2[n+]3C)cc1`, for which the GI50 was 3.83 µM in [1]; 2.65 µM in [2]; 2.35 µM in [3]; 3.99 µM in [4]; 0.954 µM in test [5]; 15.7 µM in test [6]. In addition, the GI50 is 4.78 µM in [7], 1.87 µM in test [8], 1.48 µM in [9] and 4.28 µM in [10]. For the same molecule, the TGI in [1] is 14.7 µM; in test [2], 13.1 µM; in test [3], 6.06 µM; in [4], 25.4 µM; in test [5] it was above 100 µM; in test [6] it was 34.2 µM. Moreover, the TGI is above 100 µM in test [7], 7.54 µM in test [8], above 47.5 µM in test [9] and 19.4 µM in [10].
With `NC(=S)N=Nc1c(O)c2ccccc2c2ccccc12`, the GI50 in [1] is 44.6 µM; in test [2] it was 1.97 µM; in test [3], 1.41 µM; in test [4] it was 2.17 µM; in test [5] it was 20 µM; in test [6], 13 µM. Further, the GI50 is 4.35 µM in [7], 1.96 µM in [8], 5.98 µM in test [9] and 48.2 µM in test [10]. The TGI was above 94.1 µM in test [1]; 4.95 µM in [2]; 2.9 µM in test [3]; 7.96 µM in test [4]; 46 µM in test [5]; 37 µM in [6]. The TGI in [7] was 51.5 µM; in test [8], 3.58 µM; in [9] it was 28.3 µM; in [10] it was above 100 µM.
Regarding `CC(=O)c1cc(C(=O)c2ccc3c(c2)Sc2ccccc2N3)c2c(C)cccn12`, the GI50 in test [1] is 4.73 µM; in test [2] it was 0.777 µM; in [3] it was 0.259 µM; in test [4], 0.266 µM; in test [5] it was 0.296 µM; in test [6], 2.13 µM. Further, the GI50 in test [7] was 0.27 µM; in [8] it was 13.6 µM; in test [9] it was 0.112 µM; in [10], 0.307 µM. The TGI is above 100 µM in [1]; 23.8 µM in [2]; 4.56 µM in [3]; above 36.3 µM in [4]; 0.977 µM in [5]; above 100 µM in [6]. For the same molecule, the TGI in test [7] was 10.5 µM; in [8], above 100 µM; in test [9] it was above 100 µM; in test [10], above 100 µM.
Regarding `Cc1ccc(NCCN(C)C)c2c(=O)c3ccccc3sc12`, the GI50 in test [1] is 2.34 µM; in test [2], 3.89 µM; in test [3], 1.49 µM; in [4] it was 1.59 µM; in test [5], 1.72 µM; in test [6], 2.67 µM. In addition, the GI50 in [7] was 1.47 µM; in test [8], 1.66 µM; in test [9], 1.6 µM; in [10], 1.66 µM. Also, the TGI in test [1] was 5.45 µM; in test [2], 15.5 µM; in test [3], 2.83 µM; in test [4] it was 3.76 µM; in [5], 4.15 µM; in test [6], 8.76 µM. Moreover, the TGI in test [7] worked out at 2.8 µM; in test [8] it was 3.28 µM; in [9], 3.56 µM; in test [10], 3.1 µM.
For `NNC(=O)c1ccc(OCc2nc3ccccc3[nH]2)cc1`, the TGI in test [1], in test [2], in [3], in test [4], in [5] and in test [6] was above 100 µM in each case. Also, the TGI in test [7], in [8], in [9] and in [10] was above 100 µM throughout.
As for `CCS(=O)(=O)c1ccc(OC)c(Nc2ncc(-c3ccccc3Cl)o2)c1`, the GI50 in [1] is 16.6 µM; in test [2] it was 11.8 µM; in test [3] it was 7.4 µM; in test [4] it was 11.5 µM; in [5] it was 11.8 µM; in [6], 13 µM. Besides, the GI50 was 10.1 µM in test [7], above 25 µM in [8], 11 µM in [9] and 7.59 µM in test [10]. In addition, the TGI was above 25 µM in [1]; above 25 µM in test [2]; above 19.4 µM in [3]; above 25 µM in test [4]; above 21.5 µM in test [5]; above 25 µM in test [6]. The TGI in [7], in [8], in test [9] and in [10] was above 25 µM throughout.
On to `COc1cc2c(=O)n(CCN(C)C)c3c4cc5c(cc4ccc3c2cc1OC)OCO5`, for which the GI50 in test [2] was 0.413 µM; in test [3], 0.152 µM; in test [4], 0.973 µM; in test [5], 0.239 µM; in test [6], 0.445 µM; in test [7], 0.195 µM. Moreover, the figures for the GI50 in [8], in test [9] and in [10] were 0.241 µM, 0.186 µM and 0.53 µM, respectively. For the same molecule, the TGI was 5.27 µM in test [2]; 0.559 µM in [3]; above 13.1 µM in test [4]; 3.74 µM in [5]; 5.53 µM in test [6]; 2.01 µM in test [7]. Further, the TGI in [8] was 0.967 µM; in test [9], above 11.3 µM; in test [10] it was 4.04 µM.
Turning to `COc1cccc(/C(C)=N/NC(=O)CSc2nc3ccccc3c(=O)n2CCc2ccc(S(N)(=O)=O)cc2)c1`, the GI50 was 2.36 µM in [1]; 2.27 µM in [2]; 2.03 µM in test [3]; 3.54 µM in [4]; above 100 µM in test [5]; 1.85 µM in test [6]. Further, the values for the GI50 in [8], in [9] and in test [10] were 1.98 µM, 11.2 µM and 2.8 µM, respectively. In addition, the TGI in test [1] is 5.42 µM; in [2] it was 40.9 µM; in test [3] it was 4.24 µM; in test [4], 15.9 µM; in test [5], above 100 µM; in [6] it was 4.28 µM. The TGI is 4.62 µM in [8], above 100 µM in test [9] and 7.67 µM in test [10].

These data come from PubChem BioAssay (NCI).
